From US9777070B2, “Anti-PTK7 antibody-drug conjugates” (Pfizer Inc., priority 2014, dated 2017)

Experiments:
[1] = system: Breast-13 (BR13) triple-negative breast cancer (TNBC) PDX; assay: In vivo efficacy, PDX tumor growth; design: species or system human tumor in NOD/SCID mice; conditions: 1 mg/kg
Excerpt: (§1) The effects of anti-PTK7 antibody-drug conjugates were further evaluated on the in vivo growth of human tumor patient-derived xenografts (PDX). Primary tumor resection samples were procured from clinical sites following Institutional Review Board for the Protection of Human Subjects approval and in accordance with HIPAA regulations. Tumor fragments were stored and shipped in Hypothermasol (Biolife Solutions) on ice and were embedded in Matrigel (BD) containing a proprietary mix of growth factors and implanted subcutaneously into the mammary fatpad of female NOD/SCID mice within 24 hours of resection. Mice were monitored for health status daily and for tumor growth initially by visual inspection twice per week. Once the tumors were palpable, measurements of tumor volume began to track tumor growth and estimate cell doubling time. Tumor volume was estimated using the equation V=(A*B^2)/2 where A is the long axis and B is the short axis. When tumors reached a volume of 500 mm^3 to 1,500 mm^3, they were harvested for study and for re-transplant as a patient-derived xenograft (PDX). Depending on the line, mechanical and/or chemical dissociation can be used to separate the individual cells for passage. Live cells were inoculated into naïve animals with 10,000 to 50,000 cells per animals
(§2) For efficacy studies, tumors were harvested from passaging studies and cells were dissociated into single cell suspension. Preparations were counted for live cells using Trypan blue exclusion and 10,000 to 50,000 cells were inoculated per mouse in Matrigel. […] Tumor growth was initially followed by palpability with measurements beginning once tumor volumes reached about 30 mm^3. Studies were randomized based on tumor size once a cohort of tumor-bearing mice reached 140 mm^3 to 180 mm^3. Animals were dosed by intraperitoneal injection twice a week for two weeks (q4dx4). Study groups were followed until individual mice or entire group tumor measurements reached 1200 mm^3 when sacrifice was indicated in accordance with IACUC protocol. For selected dosing studies, pharmacokinetic submandibular bleeds were performed at 2 hours, 36 hours and 72 hours. A volume of 10 μL of blood was immediately pipetted into 90 μL of HBS-P (GE Healthcare). Samples were stored at −80° C. prior to analysis. For each tumor measurement the tumor volume±standard error of the mean (SEM) is provided. GT=Group Terminated due to large tumor size.
(§3) Animals were dosed every four days for four cycles (Q4Dx4) by intraperitoneal injection except the BR5 study which was by intravenous injection on the same schedule. Tumor measurements were recorded one or two times per week using digital calipers and tumor volume was estimated using the equation V=(A×B^2)/2 where A is the long axis and B is the short axis. Animal body weights were measured and recorded at least once a week. Study groups were followed until individual mice or entire group tumor measurements reached 1200 mm^3 at which point sacrifice was indicated in accordance with IACUC protocol. For the BR5 study, animals were sacrificed once tumor volume approached 15% of the body weight at staging in accordance with IACUC protocol.
(§4) Tumor growth inhibition (TGI) was calculated using the equation % TGI=[1−(mean tumor volume of treated)/(mean tumor volume of vehicle)]. TGI was calculated at the latest possible time point, which was typically the last measurement before the control group was discontinued as described above. Tumor regression was defined as a reduction in mean tumor volume after dosing. In cases where tumors regressed, Time To Progression (TTP) indicates the number of days between the first does and the time at which mean tumor volume increased from the previous measurement to a statistically significant degree.

[2] = system: Breast-22 (BR22) TNBC PDX; assay: In vivo efficacy, PDX tumor growth; design: species or system human tumor in NOD/SCID mice
Excerpt: as §1, §2, §3
as §4, with “TGI was calculated at the latest possible time point, which was typically the last measurement before the control group was discontinued as described above.” left out

[3] = system: Breast-31 (BR31) TNBC PDX; assay: In vivo efficacy, PDX tumor growth; design: species or system human tumor in NOD/SCID mice
Excerpt: as §1, §2, §3
as §4, with “TGI was calculated at the latest possible time point, which was typically the last measurement before the control group was discontinued as described above.” left out

[4] = system: Breast-64 (BR64) TNBC PDX; assay: In vivo efficacy, PDX tumor growth; design: species or system human tumor in NOD/SCID mice; conditions: 20 mg/kg
Excerpt: as §1, §2, §3, §4

BR13 TNBC breast tumors = assay: Tumor-initiating cell (TIC) frequency by limit dilution analysis after in vivo treatment; design: species or system human tumor in mice; conditions: for # Animals with tumors: 20 mpk
Method: To determine whether anti-PTK7 antibody-drug conjugate treatments reduced tumor-initiating cell (TIC) frequency in tumors, BR13 TNBC breast tumors were treated with 4 mg/kg hu24-vc0101 ADC, 4 mg/kg control IgG ADC, or 20 mg/kg docetaxel chemotherapy twice weekly for a total of 3 doses (Days 0, 3 & 7). Live, residual human tumor cells (i.e. hESA^+ mCD45^− mH-2Kd^−) were isolated from dissociated tumors at day 10 and re-implanted into naïve animals in a limit dilution analysis (LDA). Resulting tumor incidence was monitored for up to 40 weeks post-transplant. The day of tumor harvest (day 10) and serial transplantation was chosen based on when tumors were starting to regress following hu24-vc0101 exposure. Tumors were dissociated and stained with anti-human ESA, anti-mouse CD45, and anti-mouse H-2Kd antibodies. Three tumors per treatment group were pooled, and live human tumor cells were sorted by flow cytometry. Groups of 10 mice were injected with either 293, 73, 37 or 15 tumor cells sorted from control IgG ADC treated tumors; 159, 90, 40 or 10 tumor cells sorted from hu24-vc0101 treated tumors; or 257, 33 or 15 tumor cells sorted from docetaxel-treated tumors. Tumors in recipient mice were measured weekly and tumors that exceeded 200 mm^3 in recipient mice were scored as positive. Using Poisson distribution statistics, via L-Calc software (Stemcell Technologies, Vancouver, BC), injected cell doses of recipients with and without tumors by 40 weeks post-transplant were used to calculate the frequency of TIC after each treatment.

[5] = system: non-small cell lung cancer-135 (LU135) PDX; assay: In vivo efficacy, PDX tumor growth; design: species or system human tumor in NOD/SCID mice; conditions: 20 mg/kg
Excerpt: as §1, §2, §3, §4

[6] = system: non-small cell lung cancer-176 (LU176) PDX; assay: In vivo efficacy, PDX tumor growth; design: species or system human tumor in NOD/SCID mice; conditions: 5 mg/kg
Excerpt: as §1, §2, §3, §4

COc1cccc2c1C(=O)c1c(O)c3c(c(O)c1C2=O)C[C@@](O)(C(=O)CO)C[C@@H]3O[C@H]1C[C@H](N)[C@H](O)[C@H](C)O1 [Doxorubicin, doxorubicin, reference compound]
tumor volume ± SEM ([1]; Day 0): 156 ± 13 mm^3 | tumor volume ± SEM ([1]; Day 7): 219 ± 29 mm^3 | tumor volume ± SEM ([1]; Day 14): 295 ± 39 mm^3 | tumor volume ± SEM ([1]; Day 21): 353 ± 45 mm^3 | tumor volume ± SEM ([1]; Day 28): 432 ± 50 mm^3 | tumor volume ± SEM ([1]; Day 35): 696 ± 84 mm^3 | tumor volume ± SEM ([1]; Day 42): 1001 ± 159 mm^3 | tumor volume ± SEM ([2]; Day 0, 1.5 mg/kg): 297 ± 17 mm^3 | tumor volume ± SEM ([2]; Day 14, 1.5 mg/kg): 641 ± 39 mm^3 | tumor volume ± SEM ([3]; 1.5 mg/kg, Day 0): 160 ± 11 mm^3 | tumor volume ± SEM ([3]; 1.5 mg/kg, Day 7): 304 ± 20 mm^3 | tumor volume ± SEM ([3]; 1.5 mg/kg, Day 28): 759 ± 111 mm^3

CC(=O)O[C@@]12CO[C@@H]1C[C@H](O)[C@@]1(C)C(=O)[C@H](O)C3=C(C)[C@@H](OC(=O)[C@H](O)[C@@H](NC(=O)OC(C)(C)C)c4ccccc4)C[C@@](O)([C@@H](OC(=O)c4ccccc4)[C@H]21)C3(C)C [docetaxel, reference compound]
tumor volume ± SEM ([4]; Day 0): 543 ± 46 mm^3 | tumor volume ± SEM ([4]; Day 7): 1112 ± 97 mm^3 | tumor volume ± SEM ([4]; Day 14): 1805 ± 206 mm^3 | tumor volume ± SEM ([2]; 20 mg/kg, Day 0): 182 ± 21 mm^3 | tumor volume ± SEM ([2]; 20 mg/kg, Day 7): 154 ± 23 mm^3 | tumor volume ± SEM ([2]; 20 mg/kg, Day 14): 107 ± 51 mm^3 | tumor volume ± SEM ([2]; 20 mg/kg, Day 21): 218 ± 98 mm^3 | tumor volume ± SEM ([2]; 20 mg/kg, Day 28): 418 ± 165 mm^3 | tumor volume ± SEM ([2]; 20 mg/kg, Day 35): 1191 ± 264 mm^3 | tumor volume ± SEM ([3]; 20 mg/kg, Day 0): 259 ± 47 mm^3 | tumor volume ± SEM ([3]; 20 mg/kg, Day 7): 331 ± 70 mm^3 | tumor volume ± SEM ([3]; 20 mg/kg, Day 14): 371 ± 82 mm^3 | tumor volume ± SEM ([3]; 20 mg/kg, Day 21): 451 ± 91 mm^3 | tumor volume ± SEM ([3]; 20 mg/kg, Day 28): 510 ± 103 mm^3 | tumor volume ± SEM ([3]; 20 mg/kg, Day 35): 614 ± 117 mm^3 | tumor volume ± SEM ([3]; 20 mg/kg, Day 42): 790 ± 117 mm^3 | tumor volume ± SEM ([3]; 20 mg/kg, Day 49): 837 ± 126 mm^3 | tumor volume ± SEM ([3]; 20 mg/kg, Day 63): 1131 ± 148 mm^3 | tumor volume ± SEM ([3]; 20 mg/kg, Day 70): 1317 ± 182 mm^3 | TIC frequency, fold lower than in control IgG ADC treated tumors (BR13 TNBC breast tumors; BR13, 20 mg/kg, Days 0, 3 & 7, tumors harvested day 10, p=0.09): 2.1 fold | # Animals with tumors (BR13 TNBC breast tumors; Group C1, 257 cells implanted per animal, 9 animals in group): 8 | # Animals with tumors (BR13 TNBC breast tumors; Group C2, 33 cells implanted per animal, 8 animals in group): 1 | # Animals with tumors (BR13 TNBC breast tumors; Group C3, 15 cells implanted per animal, 6 animals in group): 0

CC(=O)O[C@H]1C(=O)[C@@]2(C)[C@H]([C@H](OC(=O)c3ccccc3)[C@]3(O)C[C@H](OC(=O)[C@H](O)[C@@H](NC(=O)c4ccccc4)c4ccccc4)C(C)=C1C3(C)C)[C@]1(OC(C)=O)CO[C@@H]1C[C@@H]2O [paclitaxel, reference compound]
tumor volume ± SEM ([5]; Day 0): 175 ± 24 mm^3 | tumor volume ± SEM ([5]; Day 7): 77 ± 13 mm^3 | tumor volume ± SEM ([5]; Day 14): 58 ± 12 mm^3 | tumor volume ± SEM ([5]; Day 21): 60 ± 11 mm^3 | tumor volume ± SEM ([5]; Day 28): 93 ± 20 mm^3 | tumor volume ± SEM ([5]; Day 35): 110 ± 31 mm^3 | tumor volume ± SEM ([5]; Day 42): 184 ± 48 mm^3 | tumor volume ± SEM ([5]; Day 49): 284 ± 78 mm^3 | tumor volume ± SEM ([5]; Day 56): 384 ± 106 mm^3 | tumor volume ± SEM ([5]; Day 63): 538 ± 178 mm^3 | tumor volume ± SEM ([5]; Day 70): 667 ± 174 mm^3 | tumor volume ± SEM ([5]; Day 77): 724 ± 171 mm^3

N.N.[Cl][Pt][Cl] [cisplatin, reference compound]
tumor volume ± SEM ([6]; Day 0): 259 ± 26 mm^3 | tumor volume ± SEM ([6]; Day 7): 124 ± 30 mm^3 | tumor volume ± SEM ([6]; Day 14): 97 ± 22 mm^3 | tumor volume ± SEM ([6]; Day 21): 102 ± 24 mm^3 | tumor volume ± SEM ([6]; Day 28): 179 ± 71 mm^3 | tumor volume ± SEM ([6]; Day 35): 207 ± 69 mm^3 | tumor volume ± SEM ([6]; Day 42): 297 ± 97 mm^3 | tumor volume ± SEM ([6]; Day 49): 619 ± 262 mm^3
